Two molecules from publication PMC2365101, “Anti-Inflammatory Activity of (Polyphenolic)-Sulfonates and Their Sodium Salts in Rodents” (Metal-Based Drugs, 1998) can be followed below.

The target in the assay is T1, IL-1 high affinity receptor on L929 fibroblasts (Mus musculus, UniProt P13504).
T1 construct: host or cells: L929 mouse fibroblasts
T1 sequence (P13504 20-576): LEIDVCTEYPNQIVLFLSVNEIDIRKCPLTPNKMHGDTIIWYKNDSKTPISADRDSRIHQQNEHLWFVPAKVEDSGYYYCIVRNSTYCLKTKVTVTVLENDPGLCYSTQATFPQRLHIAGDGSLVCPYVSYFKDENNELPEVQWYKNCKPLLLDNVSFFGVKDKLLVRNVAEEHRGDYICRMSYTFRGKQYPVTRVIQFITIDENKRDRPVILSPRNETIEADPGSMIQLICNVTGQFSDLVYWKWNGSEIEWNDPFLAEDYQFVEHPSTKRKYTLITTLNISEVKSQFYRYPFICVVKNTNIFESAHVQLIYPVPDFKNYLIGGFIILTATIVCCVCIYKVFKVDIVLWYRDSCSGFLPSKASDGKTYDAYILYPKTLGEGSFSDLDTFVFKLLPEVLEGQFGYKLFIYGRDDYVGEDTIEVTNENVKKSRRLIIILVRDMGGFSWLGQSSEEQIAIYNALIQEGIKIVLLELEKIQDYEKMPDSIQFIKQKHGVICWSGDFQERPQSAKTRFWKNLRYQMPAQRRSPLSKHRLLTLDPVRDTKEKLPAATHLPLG
The experiment in a line: 125I-IL-1 high affinity binding to L929 fibroblasts. The conditions noted are these: for 125I-IL-1 binding, Percent of Control: at 8 Hours (table title), N=6; for reduction of IL-1 high affinity receptor binding: 5 to 50 μM, 5 hr. The text has this: Few reports in the literature indicate interaction at these receptor sites other than by peptides or antibodies. […] Blocking these receptors is desirable because the entire inflammation cascade of events is triggered by the early release of TNFa and IL-1. […] Radioisotopes were obtained from New England Nuclear [Dupont, Boston, MA] and substrates and co- factors were obtained from Sigma Chemical Co. [St. Louis, MO]. […] Cell lines were obtained from American Type Culture Collection [Rockville, MD]. In Vivo Tests Anti-inflammatory screen in mice: Male CF male mice weighing 28-32g obtained from Jackson Lab. [Bar Harbor, […]] were used to screen agents at 8 or 16 mg/kg intraperitoneal [I.P.] x 2 administered 3 hr and 30 min prior to administering the irritant, according to Winter's protocol. Evaluation of the induced edema was made by injecting 2% carrageenan in 0.9% saline into the plantar region of the foot. The opposite foot injected with 0.9% isotonic saline was used as a base line. […] Salmonella abortus equi [Lot # 69F4003] […] Drugs from 2 to 16 mg/kg, I.P. were administered 2 hr prior and 2 hr post-injection of the LPS and then subsequently for every 24 hr for the length ofthe animals' lives. Deaths were recorded every 12 hr and continued for 96 hr. […] In vitro TNFa andIL-1 Measurements and Cellular Regulation IC-21 mouse macrophages were maintained in RPMI-1640 + 10% FCS + P/S. After the cells had grown to confluency, E. coli LPS at 10 Ixg/ml was added to the medium. Agents were incubated at 12.5 to 100 µM final concentration for 18 hr. The medium (100 btl) was collected for TNFCt determinations. Interleukin-1 [IL-1] release was determined using P388D1 cells which were maintained in RPMI-1640 + 10% FCS + P/S. The L929 bioassay was used to quantitate the TNF and the IL-1 levels. The L929 mouse fibroblasts were grown in DMEM + 10% FCS + P/S to confluency in 96 well plates and incubated with 100 tl ofmedium from IC-20 or P388D cells after 18 hr. The cells were stained with 0.2% crystal violet in 20% MeOH and read at 580 nm using a Molecular Devices scanner (SOFT-max program). […] The cells were washed repeatedly with isotonic saline, pH.7.2 and aliquots counted. Prostaglandin cylcooxygenase activity Mouse J774AI macrophages maintained in Dulbecco's modified Eagle's medium + 15% FCS + P/S. Cells (5 x 106) were incubated with agents (5 to 100 ].tM final concentration) and 3H-arachidonic acid (100 Ci/mol) for 60 min at 37C in a CO2 incubator. The reaction was terminated with 2N HCI, the mixture extracted 2 X with ether, and the organic layer evaporated.

Regarding `COc1c2cc(S(=O)(=O)[O-])cc1Cc1cc(S(=O)(=O)[O-])cc(c1OC)Cc1cc(S(=O)(=O)[O-])cc(c1OC)Cc1cc(S(=O)(=O)[O-])cc(c1OC)Cc1cc(S(=O)(=O)[O-])cc(c1OC)Cc1cc(S(=O)(=O)[O-])cc(c1OC)C2.[Na+].[Na+].[Na+].[Na+].[Na+].[Na+]` [Compound 6], the “reduction of IL-1 high affinity receptor binding” value is recorded as “greater than 90%”. Also, the “125I-IL-1 binding, Percent of Control” value (5 μM) is 3+2% of Control. For the same molecule, the “125I-IL-1 binding, Percent of Control” value (12.5 μM) is reported as 3 + 2% of Control. For the same molecule, where the note is “25 μM”, the “125I-IL-1 binding, Percent of Control” value is 3 + 2% of Control. Moreover, for the setting “50 μM”, the “125I-IL-1 binding, Percent of Control” value is 3 + 1% of Control.

As to `CC(=O)Oc1c2cc(S(=O)(=O)[O-])cc1Cc1cc(S(=O)(=O)[O-])cc(c1OC(C)=O)Cc1cc(S(=O)(=O)[O-])cc(c1OC(C)=O)Cc1cc(S(=O)(=O)[O-])cc(c1OC(C)=O)Cc1cc(S(=O)(=O)[O-])cc(c1OC(C)=O)Cc1cc(S(=O)(=O)[O-])cc(c1OC(C)=O)Cc1cc(S(=O)(=O)[O-])cc(c1OC(C)=O)Cc1cc(S(=O)(=O)[O-])cc(c1OC(C)=O)C2.[Na+].[Na+].[Na+].[Na+].[Na+].[Na+].[Na+].[Na+]` [Compound 8], the “reduction of IL-1 high affinity receptor binding” value is given as “greater than 90%”. Besides, where the note is “5 μM”, the “125I-IL-1 binding, Percent of Control” value is given as 9+ 1% of Control. In addition, under “12.5 μM”, the “125I-IL-1 binding, Percent of Control” value is given as 10 + 5% of Control. The “125I-IL-1 binding, Percent of Control” value (25 μM) is recorded as 9 + 5% of Control. The “125I-IL-1 binding, Percent of Control” value (50 μM) is on record as 7 + 4% of Control.
